The structures appear in SMILES notation.

Data set [1] concerns wide-type HIV-1 (strain IIIB). Nature of the data set: Anti-HIV-1 activity in MT-4 cells (MTT method), wild-type. In kind it is cell-based. The note with it: for EC50: Human immunodeficiency virus 1, IIIB, MT4, read-out: EC50 (nM) wt. Here is the method:
(§1) Selected compounds were screened for inhibitory activity against HIV-1 using MTT method as describe previously by Christophe. Pannecouque et al. Nat. Protoc. 3 (2008) 427-434, and Rudi Pauwels et al. J. Virol. Methods 20 (1988) 309-321. Briefly, MT-4 cells infected with HIV-1 can only survive for 5 to 7 days without any treatment, but when HIV-1 inhibitors were added, they can protect MT-4 cell from cytopathic. Serial solution of compounds was added to MT-4 cells after infected with HIV-1, MTT method was used to detect the survival rate after culture for 5 to 7 days. EC50 value was defined as compound concentration required to achieve 50% protection of MT-4 cells against HIV-1-induced cytopathic effect. In vitro anti-HIV-1 assay was supported by Rega Institute for Medical Research.
(§2) • (1) MT-4 cells infected with HIV-1 viral strains (IIIB, L100I, K103N, Y181C, Y188L, E138K, F227L/V106A, Y181C/K103N) were provided by Rega Institute for Medical Research, Katholieke Universiteit Leuven, Belgium. • (2) MTT and formazan: sigma Chemical Co. • (3) Preparation of compounds: Stock solutions (10×final concentration) of test compounds is diluted with double distilled water for 5 folds and 5 concentrations of one compound are prepared. • (4) Reference drugs: Nevirapine (NVP), Efavirenz (EFV), Etravirine (ETV), Rilpivirine (RPV) and Azidothymidine (AZT). • (5) Method (MTT method): Serial five-fold dilutions of test compounds were added to cultured MT-4 cells infected with HIV-1, after 5 to 7 days, MTT was added and cultured for a few hours. Medium was removed and lysate was added followed by formazan, OD value was determined in 690 nm and 540 nm by microplate reader, and EC50 value was calculated. 2. Method
(§3) The MTT method was described briefly as follows: 96-well plastic microtiter trays were filled with 100 μL of complete medium. Subsequently, serial of tested compounds was added (25 μL) to two series of triplicate wells so as to allow simultaneous evaluation of their effects on HIV- and mock infected cells. 50 μL of 1×10^4 cells/mL MT-4 cells were added. After cultured for 5 days at 37° C. in humidified atmosphere in the presence of 5% CO2, MTT was added and cultured for another 2 h, then medium was removed and 100 μL isopropanol solution was added to lyse the cells. Formazan crystals were added and vibrated platform shaker for 10 min to solubilize the formazan crystals. Absorbances at 690 nm and 540 nm were read by using spectrophotometrically. EC50 was defined as the concentration achieving 50% protection from the cytopathic effect of the virus in infected cells.
(§4) Selected compounds prepared as described above were assayed in MT-4 cells infected with wide-type IIIB, L100I, K103N, Y181C, Y188L, E138K or double mutant RES056 (Y181C/K103N) and F227L/V106A HIV-1 strains. Nevirapine, Efavirenz, Etravirine, Rilpivirine and Azidothymidine were selected as reference drugs. The results were listed below as EC50 value (nM)
In general terms: Formazan colour is commonly taken as a measure of viable cells.

Data set [2] relates to HIV-1 L100I mutant strain. Nature of the data set: Anti-HIV-1 activity in MT-4 cells (MTT method), L100I. In kind it is cell-based. The note with it: Human immunodeficiency virus 1, MT4, read-out: EC50 (nM) L100I. Here is the method:
as §1, §2, §3, §4

Data set [3] deals with HIV-1 K103N mutant strain. Kind of data set: Anti-HIV-1 activity in MT-4 cells (MTT method), K103N. In kind it is cell-based. As to conditions: Human immunodeficiency virus 1, MT4, read-out: EC50 (nM) K103N. Here is the method: as §1, §2, §3, §4
Data set [4] has as its system HIV-1 Y181C mutant strain. Nature of the data set: Anti-HIV-1 activity in MT-4 cells (MTT method), Y181C. In kind it is cell-based. The note with it: Human immunodeficiency virus 1, MT4, read-out: EC50 (nM) Y181C. The method, then: as §1, §2, §3, §4
Data set [5] relates to HIV-1 Y188L mutant strain. Nature of the data set: Anti-HIV-1 activity in MT-4 cells (MTT method), Y188L. In kind it is cell-based. The note with it: Human immunodeficiency virus 1, MT4, read-out: EC50 (nM) Y188L. The method, then:
as §1, §2, §3, §4

In data set [6] the test system is HIV-1 E138K mutant strain. Nature of the data set: Anti-HIV-1 activity in MT-4 cells (MTT method), E138K. In kind it is cell-based. As to conditions: Human immunodeficiency virus 1, MT4, read-out: EC50 (nM) E138K. The method, then:
as §1, §2, §3, §4

For data set [7], the system named is HIV-1 F227L/V106A double mutant strain. Kind of data set: Anti-HIV-1 activity in MT-4 cells (MTT method), F227L/V106A. As to conditions: Human immunodeficiency virus 1, MT4, read-out: EC50 (nM) F227L/V106A. In kind it is cell-based. The method, then:
as §1, §2, §3, §4

For data set [8], the system named is HIV-1 double mutant RES056 (Y181C/K103N). Nature of the data set: Anti-HIV-1 activity in MT-4 cells (MTT method), RES056. In kind it is cell-based. As to conditions: Human immunodeficiency virus 1, MT4, read-out: EC50 (nM) Y181C/K103N. Here is the method:
as §1, §2, §3, §4

A word on the melting point: it is the temperature of the solid-liquid transition. The compound `Cc1cc(C#N)cc(C)c1Oc1nc(Nc2ccc(C#N)cc2)nc2c1SCCC2` [IA-1-1, 4-((2-((4-cyanophenyl)amino)-7,8-dihydro-6H-thiopyrano[3,2-d]pyrimidin-4-yl)oxy)-3,5-dimethylbenzonitrile] displayed a melting point of 253 to 254 °C. Further, the EC50 in data set [1] is less than 10 nM. The EC50 in data set [2] was 10 to 100 nM. The EC50 in data set [3] is less than 10 nM. Also, the EC50 in data set [4] fell in the range of 10 to 100 nM. Further, in data set [5], the EC50 fell in the range of 10 to 100 nM. Further, in data set [6], the EC50 fell in the range of 10 to 100 nM. Also, the EC50 in [7] fell in the range of 10 to 100 nM. Moreover, in [8], the EC50 was 10 to 100 nM.

`Cc1cc(C#N)cc(C)c1Oc1nc(Nc2ccc(C#N)cc2)nc2c1[S+]([O-])CCC2` (centres unmarked) [IA-1-3, 4-((2-((4-cyanophenyl)amino)-5-oxido-7,8-dihydro-6H-thiopyrano[3,2-d]pyrimidin-4-yl)oxy)-3,5-dimethylbenzonitrile] showed a melting point of 247 to 249 °C. Further, the EC50 in [1] is less than 10 nM. Further, in data set [2], the EC50 was more than 100 nM. Moreover, the EC50 in data set [3] was 10 to 100 nM. Moreover, the EC50 in [4] was 10 to 100 nM. For the same compound, the EC50 in data set [5] lay within 10 to 100 nM. The EC50 in data set [6] was in the range of 10 to 100 nM. In addition, the EC50 in data set [7] was more than 100 nM. Further, the EC50 in data set [8] is more than 100 nM.

Compound `Cc1cc(C#N)cc(C)c1Oc1nc(Nc2ccc(C#N)cc2)nc2c1S(=O)(=O)CCC2` [IA-1-4, 4-((2-((4-cyanophenyl)amino)-5,5-dioxido-7,8-dihydro-6H-thiopyrano[3,2-d]pyrimidin-4-yl)oxy)-3,5-dimethylbenzonitrile] displayed a melting point of 263 to 265 °C. Moreover, the EC50 in data set [1] is less than 10 nM. Also, the “Activity against wide-type HIV-1, folds better than NVP” value in [1] (wide-type HIV-1, relative to NVP) turned out to be 30 folds. Besides, the “Activity against wide-type HIV-1 compared with RPV” value in data set [1] (wide-type HIV-1, relative to RPV) was “comparable”. The EC50 in [2] lay within 10 to 100 nM. The EC50 in data set [3] was less than 10 nM. The EC50 in [4] was in the range of 10 to 100 nM. Besides, in data set [5], the EC50 was in the range of 10 to 100 nM. Moreover, the EC50 in data set [6] lay in the range of 10 to 100 nM. Moreover, in data set [7], the EC50 lay in the range of 10 to 100 nM. Moreover, the EC50 in [8] lay in the range of 10 to 100 nM.

Turning to `Cc1cc(C#N)cc(C)c1Oc1nc(NC2CCN(Cc3ccc([N+](=O)[O-])cc3)CC2)nc2c1SCCC2` [IIA-1-12, 3,5-dimethyl-4-((2-((1-(4-nitrobenzyl)piperidin-4-yl)amino)-7,8-dihydro-6H-thiopyrano[3,2-d]pyrimidin-4-yl)oxy)benzonitrile], the EC50 in data set [1] is less than 10 nM; in data set [2], more than 100 nM; in [3] it was 10 to 100 nM; in data set [4], more than 100 nM; in data set [5], 10 to 100 nM; in data set [6], 10 to 100 nM. The EC50 in data set [7] and in [8] was more than 100 nM in each case.

In the case of `Cc1cc(C#N)cc(C)c1Oc1nc(NC2CCN(Cc3ccc(C#N)cc3)CC2)nc2c1SCCC2` [IIA-1-5, 4-((2-((1-(4-cyanobenzyl)piperidin-4-yl)amino)-7,8-dihydro-6H-thiopyrano[3,2-d]pyrimidin-4-yl)oxy)-3,5-dimethylbenzonitrile], the EC50 was less than 10 nM in data set [1]; 10 to 100 nM in data set [2]; 10 to 100 nM in data set [3]; 10 to 100 nM in [4]; 10 to 100 nM in data set [5]; 10 to 100 nM in data set [6]. In addition, the EC50 in data set [7] and in [8] was more than 100 nM throughout.

As for `Cc1cc(C#N)cc(C)c1Oc1nc(NC2CCN(Cc3cccc(C(N)=O)c3)CC2)nc2c1SCCC2` [IIA-1-9, 3-((4-((4-(4-cyano-2,6-dimethylphenoxy)-7,8-dihydro-6H-thiopyrano[3,2-d]pyrimidin-2-yl)amino)piperidin-1-yl)methyl)benzamide], the EC50 was less than 10 nM in data set [1]; 10 to 100 nM in data set [2]; 10 to 100 nM in data set [3]; 10 to 100 nM in data set [4]; 10 to 100 nM in data set [5]; 10 to 100 nM in data set [6]. The EC50 in [7] and in data set [8] was more than 100 nM throughout.

Source of the values: patent US10590145B2, “Tetrahydrothiopyranopyrimidine derivatives as anti-HIV agent” (SHANDONG UNIVERSITY, priority 2016, dated 2020).
